Experimental data reported in PubChem BioAssay (NCI).
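Assay format: 96-well plates, 48-hour exposure. GI50: concentration for 50% inhibition of growth. TGI denotes the concentration required for complete inhibition of growth.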

How the values were obtained:
Assay in all cases: NCI-60 cell line screen, 48 h
DU-145 prostate = tested on: DU-145 prostate
HCC-2998 colon = tested on: HCC-2998 colon
LOX IMVI melanoma = tested on: LOX IMVI melanoma
KM12 colon = tested on: KM12 colon
T-47D breast = tested on: T-47D breast
CCRF-CEM leukemia = tested on: CCRF-CEM leukemia
SF-295 CNS = tested on: SF-295 CNS
HCT-116 colon = tested on: HCT-116 colon
TK-10 renal = tested on: TK-10 renal
NCI-H23 lung = tested on: NCI-H23 lung
NCI-H522 lung = tested on: NCI-H522 lung
U251 CNS = tested on: U251 CNS
A549 NSCLC = tested on: A549 NSCLC
MDA-MB-231 breast = tested on: MDA-MB-231 breast
EKVX NSCLC = tested on: EKVX NSCLC
786-0 renal = tested on: 786-0 renal
HT29 colon = tested on: HT29 colon
HOP-62 NSCLC = tested on: HOP-62 NSCLC
RPMI-8226 leukemia = tested on: RPMI-8226 leukemia
PC-3 prostate = tested on: PC-3 prostate
MALME-3M melanoma = tested on: MALME-3M melanoma
SN12C renal = tested on: SN12C renal
UACC-257 melanoma = tested on: UACC-257 melanoma
HCT-15 colon = tested on: HCT-15 colon
SK-OV-3 ovarian = tested on: SK-OV-3 ovarian
MDA-MB-435 = tested on: MDA-MB-435
SK-MEL-5 melanoma = tested on: SK-MEL-5 melanoma
UO-31 renal = tested on: UO-31 renal
CAKI-1 renal = tested on: CAKI-1 renal
NCI/ADR-RES ovarian = tested on: NCI/ADR-RES ovarian
OVCAR-8 ovarian = tested on: OVCAR-8 ovarian
SK-MEL-28 melanoma = tested on: SK-MEL-28 melanoma
IGROV1 ovarian = tested on: IGROV1 ovarian
MOLT-4 leukemia = tested on: MOLT-4 leukemia
MCF7 breast = tested on: MCF7 breast
NCI-H460 lung = tested on: NCI-H460 lung
SNB-75 CNS = tested on: SNB-75 CNS
RXF 393 renal = tested on: RXF 393 renal
SR leukemia = tested on: SR leukemia
SK-MEL-2 melanoma = tested on: SK-MEL-2 melanoma
ACHN renal = tested on: ACHN renal
SF-539 CNS = tested on: SF-539 CNS
HOP-92 NSCLC = tested on: HOP-92 NSCLC
SNB-19 CNS = tested on: SNB-19 CNS
HS 578T breast = tested on: HS 578T breast

CCCCCCn1c(-c2ccc(C(=O)O/N=C(\N)c3ccc(OC)cc3)cc2)nc(-c2ccccc2)c1-c1ccccc1
GI50 (DU-145 prostate): 1020 nM | TGI (DU-145 prostate): 2220 nM | GI50 (HCC-2998 colon): 2090 nM | TGI (HCC-2998 colon): 4810 nM | GI50 (LOX IMVI melanoma): 186 nM | TGI (LOX IMVI melanoma): 341 nM | GI50 (KM12 colon): 2810 nM | TGI (KM12 colon): > 100000 nM | GI50 (T-47D breast): 1940 nM | TGI (T-47D breast): 4890 nM | GI50 (CCRF-CEM leukemia): 506 nM | TGI (CCRF-CEM leukemia): 2850 nM | GI50 (SF-295 CNS): 1610 nM | TGI (SF-295 CNS): 3070 nM | GI50 (HCT-116 colon): 1400 nM | TGI (HCT-116 colon): 2890 nM | GI50 (TK-10 renal): 1720 nM | TGI (TK-10 renal): 3310 nM | GI50 (NCI-H23 lung): 1310 nM | TGI (NCI-H23 lung): 2930 nM | GI50 (NCI-H522 lung): 1740 nM | TGI (NCI-H522 lung): 3720 nM | GI50 (U251 CNS): 1620 nM | TGI (U251 CNS): 4210 nM | GI50 (A549 NSCLC): 777 nM | TGI (A549 NSCLC): 3360 nM | GI50 (MDA-MB-231 breast): 1610 nM | TGI (MDA-MB-231 breast): 3690 nM | GI50 (EKVX NSCLC): 1700 nM | TGI (EKVX NSCLC): 3380 nM | GI50 (786-0 renal): 276 nM | TGI (786-0 renal): 833 nM | GI50 (HT29 colon): 2670 nM | TGI (HT29 colon): > 100000 nM | GI50 (HOP-62 NSCLC): 1900 nM | TGI (HOP-62 NSCLC): 4660 nM | GI50 (RPMI-8226 leukemia): 1420 nM | TGI (RPMI-8226 leukemia): 3900 nM | GI50 (PC-3 prostate): 1670 nM | TGI (PC-3 prostate): 4160 nM | GI50 (MALME-3M melanoma): 1750 nM | TGI (MALME-3M melanoma): 3550 nM | GI50 (SN12C renal): 1620 nM | TGI (SN12C renal): 3260 nM | GI50 (UACC-257 melanoma): 4070 nM | TGI (UACC-257 melanoma): > 100000 nM | GI50 (HCT-15 colon): 1250 nM | TGI (HCT-15 colon): 2870 nM | GI50 (SK-OV-3 ovarian): 4450 nM | TGI (SK-OV-3 ovarian): > 100000 nM | GI50 (MDA-MB-435): 1660 nM | TGI (MDA-MB-435): 3200 nM | GI50 (SK-MEL-5 melanoma): 1920 nM | TGI (SK-MEL-5 melanoma): 3710 nM | GI50 (UO-31 renal): 413 nM | TGI (UO-31 renal): 1480 nM | GI50 (CAKI-1 renal): 997 nM | TGI (CAKI-1 renal): 2190 nM | GI50 (NCI/ADR-RES ovarian): 1180 nM | TGI (NCI/ADR-RES ovarian): 3410 nM | GI50 (OVCAR-8 ovarian): 2210 nM | TGI (OVCAR-8 ovarian): 6470 nM | GI50 (SK-MEL-28 melanoma): 2960 nM | TGI (SK-MEL-28 melanoma): > 100000 nM | GI50 (IGROV1 ovarian): 295 nM | TGI (IGROV1 ovarian): 869 nM | GI50 (MOLT-4 leukemia): 1410 nM | TGI (MOLT-4 leukemia): 4080 nM | GI50 (MCF7 breast): 1610 nM | TGI (MCF7 breast): 3720 nM | GI50 (NCI-H460 lung): 1850 nM | TGI (NCI-H460 lung): 3930 nM | GI50 (SNB-75 CNS): 1290 nM | TGI (SNB-75 CNS): 3090 nM | GI50 (RXF 393 renal): 1620 nM | TGI (RXF 393 renal): 3170 nM | GI50 (SR leukemia): 196 nM | TGI (SR leukemia): 528 nM | GI50 (SK-MEL-2 melanoma): 2930 nM | TGI (SK-MEL-2 melanoma): 9460 nM | GI50 (ACHN renal): 354 nM | TGI (ACHN renal): 1230 nM | GI50 (SF-539 CNS): 1500 nM | TGI (SF-539 CNS): 3020 nM | GI50 (HOP-92 NSCLC): 1120 nM | TGI (HOP-92 NSCLC): 2610 nM | GI50 (SNB-19 CNS): 1850 nM | TGI (SNB-19 CNS): 4640 nM | GI50 (HS 578T breast): 1200 nM | TGI (HS 578T breast): 3100 nM
